Consider 1 compound from patent publication US11872237B2, “Pharmaceutical composition and preparation method thereof” (Ascentage Pharma (Suzhou) Co., Ltd., priority 2019, dated 2024).

In brackets after ≈: the same amount, converted by molar mass.

Data set [1] in a line: Effect of pH value on the solubility of Compound 1 (solution appearance). The format is physicochemical. How it is done:
Experimental method: Referring to the process of preparation of solution in Preparation Example 1, the preparation was carried out in an amount of 10 vials, and the solutions with different pH values were prepared according to the following formulations (contents in each vial), and the properties of the prepared solutions were observed.
The thicker of the milky white, the worse of the solubility.

A short description of data set [2]: Solubility of Compound 1 in different co-solvents (excess compound, HPLC analysis). It is filed as physicochemical. To be noted: organic solvent or mixture, thermodynamic from solid, about half an hour. From the text: 2. The effects of different co-solvents on the solubility of Compound 1 were observed. The specific results are as follows.
Experimental method: Compound 1 was taken in excess amount, suspended in various solvents, sampled and filtered after about half an hour, and analyzed by HPLC analysis.

Data set [3] can be described thus: Effect of surfactant on solubility and clarity of Compound 1 (appearance observation). It is filed as physicochemical. To be noted: PEG400, ethanol, mannitol. How it is done:
3. The effects of the Polyoxyl 35 Castor Oil ester used by the present invention as surfactant on the solubility and clarity of the compound 1 were further tested. The specific results are as follows.
Experimental method: Referring to the process of preparation of solution in Preparation Example 1, the preparation was carried out in an amount of 10 vials, and the solutions with different pH values were prepared according to the following formulations (contents in each vial) for appearance observation.
In addition, the effect of Tween80 as surfactant of the present invention on the solubility and clarity of compound 1 was tested. Specific results are as follows.
Experimental Method: referring to the process of preparation of solution in Preparation Example 1, the solution was prepared according to the formulation in the Table below for appearance observation.
Similarly, the effect of Solutol HS-15 as surfactant of the present invention on the solubility and clarity of compound 1 was tested. Specific results are as follows.

Data set [4] can be described thus: General statements on solubility and stability of Compound 1 versus pH. The format is physicochemical.
A further data set relates to cancer cells. To be noted: see WO2014113413; cited from earlier work.

As for `Cc1c(S(C)(=O)=O)c(-c2cc(F)cc(N3CCN(c4ccc(NS(=O)(=O)c5ccc(N[C@H](CCN6CCC(C(=O)OCCCP(=O)(O)O)CC6)CSc6ccccc6)c(S(=O)(=O)C(F)(F)F)c5)cc4)CC3)c2)c(-c2ccc(Cl)cc2)n1C(C)C` [Compound 1, (3R)-1-(3-(4-(4-(4-(3-(2-(4-chlorophenyl)-1-isopropyl-4-methylsulfonyl-5-methyl-1H-pyrrol-3-yl)-5-fluorophenyl)piperazin-1-yl)-phenylaminosulfonyl)-2-trifluoromethylsulfonyl-anilino)-4-phenylthio-butyl)-piperidine-4-carboxylic acid 3-phosphonopropyl ester], the “solubility of Compound 1” value in data set [1] (pH 7.888, Table 1 formulation) was “poor”; in data set [1] (pH 8.528, Table 1 formulation), “acceptable”; in data set [1] (pH 9.016, Table 1 formulation) it was “acceptable”; in data set [1] (pH 9.326, Table 1 formulation) it was “best solubility”. The solubility (as a rule, how much of the substance goes into solution per volume) in data set [2] (solvent Ethanol, 25° C.) is 850 µg/mL (≈ 663 µM); in data set [2] (solvent Glycerin, 25° C.), 450 µg/mL (≈ 351 µM); in data set [2] (solvent PEG400, 25° C.), 16800 µg/mL (≈ 13100 µM); in data set [2] (solvent Propylene glycol, 25° C.), 3100 µg/mL (≈ 2420 µM); in data set [4] (acidic or near-neutral solutions), “extremely poorly soluble”. The Solution appearance result was “Transparent solution” in data set [3] (Table 3a: compound 1 10 mg/ml, Tween80 50 mg, pH 9.0) and “Transparent solution” in data set [3] (Table 3b: compound 1 10 mg/ml, Solutol HS-15 240 mg, pH 8.7). In addition, the dissolution entry in data set [4] (alkaline conditions) is on record as “greatly improved”. Further, in data set [4] (alkaline conditions), the stability entry is “unstable”. For the same compound, the “inducing apoptosis of cancer cells” value in the data set with cancer cells is “effective”.
